According to PubChem BioAssay AID1645848:
≈ marks a conversion by molar mass, not a printed value.

Details: buffer; pH 7.4; 6.0 h; 150.0 µM

| SMILES | solubility kinetic |
| --- | --- |
| Cc1nn2c(c1-c1ccccc1OCc1ccccc1)N(C(=O)Cc1ccc3c(c1)OCO3)CCC2 | < 1 µg/mL |
| N#CC1CCN(c2nc(-c3ccc(Br)cc3)cs2)CC1 | 1.46 µg/mL (≈ 4.19 µM) |
| Cc1ccnc(NC(=S)N2CCN(c3cc(C(F)(F)F)cc(C(F)(F)F)c3)CC2)c1 | 6.7 µg/mL (≈ 14.9 µM) |
| Cc1cc(C)nc(NC(=S)N2CCN(c3ccc(C(F)(F)F)cc3Cl)CC2)c1 | 3.08 µg/mL (≈ 7.19 µM) |
| NC(=O)C1CCN(c2nc(-c3cccnc3)cs2)CC1 | > 43 µg/mL |
| COc1cc2c(c(OC)c1OC)-c1ccc(SC)c(=O)cc1C(N)CC2 (centres undefined) | > 55 µg/mL |
| Fc1ccccc1CNCc1ccc(-c2ccnc3[nH]ccc23)cc1 | 13.2 µg/mL (≈ 39.8 µM) |
| COc1cccc(-c2nc(-c3c(C)noc3C)cc3[nH]c(C)cc23)c1OC | 20.4 µg/mL (≈ 56.2 µM) |
| COc1ccc(C(=O)N2CCCC(c3nn(-c4ccc(OC)cc4)c(=O)[nH]3)C2)cc1 (centres undefined) | > 60 µg/mL |
| Nc1c(C(=O)Nc2ccc(F)cc2)sc2nc(-c3cccs3)cc(C(F)(F)F)c12 | < 1 µg/mL |
| COc1ccc(-c2ccc3nc(-c4cc(F)cc(F)c4F)oc3c2)c(OC)c1OC | < 1 µg/mL |
| COc1ccc(OC)c(CNc2ncnc3onc(C)c23)c1 | > 44 µg/mL |
| CC[C@@H](CO)NC(=O)[C@@H]1C=C2c3cccc4c3c(cn4C)C[C@H]2N(C)C1 | > 52 µg/mL |
| CCOC(=O)c1ccc(-c2ccc3ncnc(NCCc4cnc[nH]4)c3c2)o1 | 26.2 µg/mL (≈ 69.4 µM) |
| CNCc1ccc(-c2cc(-c3nc(-c4ccc(S(=O)(=O)C(C)C)cc4)cnc3N)on2)cc1 | 27.3 µg/mL (≈ 59 µM) |
| O=C(NCc1ccc(N2CCCC2)nc1)c1cc(Cl)ccc1O | 1.3 µg/mL (≈ 3.93 µM) |
| Cc1ccc(-c2cc(C(=O)Nc3ccc(-c4noc(=O)[nH]4)cc3)c3ccccc3n2)cc1C | 1.39 µg/mL (≈ 3.19 µM) |
| COc1ccc(C(=O)NC2CCCc3c2[nH]c2c(Cl)cccc32)cc1OC (centres undefined) | 1.14 µg/mL (≈ 2.95 µM) |
| CC(=O)c1c(C)[nH]c(C(=O)Nc2ccc(C)c(S(=O)(=O)N3CCCCCC3)c2)c1C | 1.05 µg/mL (≈ 2.44 µM) |
| CC(/C=C/C(=O)NO)=C\[C@@H](C)C(=O)c1ccc(N(C)C)cc1 | > 45 µg/mL |
| NC(=O)C1CCN(c2nc(-c3ccccc3N)cs2)CC1 | 29.4 µg/mL (≈ 97.1 µM) |
| CC(C)(C#N)c1ccc(N2C(=O)OCc3cnc4ccc(-c5cnc6ccccc6c5)cc4c32)cc1 | < 1 µg/mL |
| CC(C)(C)OC(=O)N[C@@H](Cc1ccc(O[S+](=O)([O-])c2cccc3cnccc23)cc1)C(=O)Nc1ccc(-c2ccccc2)cc1 | < 1 µg/mL |
| Cc1cnc(CNc2nc(-c3ccccc3Cl)nc3ccccc23)cn1 | 41.9 µg/mL (≈ 116 µM) |
| Cc1ccnc(NC(=S)N2CCN(c3cccc(C(F)(F)F)n3)CC2)c1 | 3.88 µg/mL (≈ 10.2 µM) |

| SMILES | solubility kinetic |
| --- | --- |
| CC(=O)N1CCC2(CCCN(c3ccc(-c4ccccc4)cc3)C2)CC1 | < 1 µg/mL |
| Oc1ccc(-c2nc(C3CC3)nc3c2CCN(CC2CCCCC2)CC3)cc1 | 11.3 µg/mL (≈ 29.9 µM) |
| CNc1oc(-c2cccc3ccccc23)nc1C(=O)OC | < 1 µg/mL |
| Cc1cc(S(=O)(=O)Nc2cnccc2C(=O)Nc2nc(-c3ccccc3)cs2)c(C)o1 | > 67 µg/mL |
| Fc1ccccc1Nc1nc(-c2ccncc2)nc2ccccc12 | < 1 µg/mL |
| O=c1[nH]c(C2CCN(CC3CCCCC3)CC2)nn1Cc1ccccc1 | > 52 µg/mL |
| O=C(NCc1ccco1)c1nc2nc(-c3cccs3)cc(C(F)(F)F)n2n1 | 4.51 µg/mL (≈ 11.5 µM) |
| COc1ccc(NC(=O)c2c(C)cccc2C)cc1[S+](=O)([O-])N(C)C | 32.8 µg/mL (≈ 90.4 µM) |
| Cc1cc(C)nc(NC(=S)N2CCN(c3cc(C(F)(F)F)nc4ccc(C(F)(F)F)cc34)CC2)c1 | 12 µg/mL (≈ 23.4 µM) |
| Fc1ccc(Nc2nccc(-c3ccncc3)n2)cc1F | 2.48 µg/mL (≈ 8.71 µM) |
| NC(=O)C1CCN(c2nc(-c3cccc(N)c3)cs2)CC1 | > 45 µg/mL |
| CN(C)CCCN1c2ccc(O)cc2Sc2ccc(Cl)cc21 | > 49 µg/mL |
| CN1CCC(N(Cc2cccs2)c2ccccc2)CC1 | > 42 µg/mL |
| CC[C@H]1NC(=O)[C@@H](NC(=O)c2ncccc2O)[C@@H](C)OC(=O)[C@H](c2ccccc2)NC(=O)[C@@H]2CC(=O)CCN2C(=O)[C@H](Cc2ccccc2)N(C)C(=O)[C@@H]2CCCN2C1=O | > 100 µg/mL |
| Cc1noc(C)c1CN1CCNc2cc(Nc3ccccc3)ncc2C1 | > 77 µg/mL |
| CCOC(=O)C1CCN(C(=O)C(C)(C)NC(=O)Nc2ccc(-c3ccccc3)cc2)CC1 | 10.8 µg/mL (≈ 24.6 µM) |
| Cc1ccc(S(=O)(=O)Nc2cnccc2C(=O)Nc2nc(-c3ccc(Oc4ccccc4)cc3)cs2)cc1 | 0.918 µg/mL (≈ 1.69 µM) |
| COc1ccc(-c2ccc3nc(-c4cc(F)ccc4F)oc3c2)c(OC)c1OC | < 1 µg/mL |
| Cc1ccc(S(=O)(=O)Nc2cnccc2C(=O)Nc2nc(-c3ccc(F)cc3)cs2)cc1 | < 1 µg/mL |
| N#Cc1ccccc1CSc1nc2ncc(Br)cc2[nH]1 | 1.09 µg/mL (≈ 3.16 µM) |
| Cc1ccccc1CSc1nc2ncc(Br)cc2[nH]1 | < 1 µg/mL |
| Nc1ccc(CNc2ccc([S+](=O)([O-])Nc3nccs3)cc2)c(O)c1 | 45.7 µg/mL (≈ 121 µM) |
| N#Cc1ccc(-c2csc(N3CCC(C(N)=O)CC3)n2)cc1 | 4.34 µg/mL (≈ 13.9 µM) |
| O=C1CCCC2=C1C(c1ccccc1I)N=C(Nc1nc3ccccc3o1)N2 (centres undefined) | < 1 µg/mL |
| O=C(Cc1ccc(Cl)c(Cl)c1)Nc1ccc([S+](=O)([O-])Nc2ccccn2)cc1 | < 1 µg/mL |

| SMILES | solubility kinetic |
| --- | --- |
| CC(C)C(=O)N1CCc2ccc(OCc3nc(C(=O)N4CCCC4)co3)cc2C1c1cccc(F)c1 (centres undefined) | 32.9 µg/mL (≈ 66.9 µM) |
| O=C(Nc1nc(-c2ccccc2)cs1)c1ccncc1NS(=O)(=O)c1ccc(Cl)cc1 | < 1 µg/mL |
| O=C(Nc1ccc(OC(F)(F)Cl)cc1)c1cnc(N2CC[C@@H](O)C2)c(-c2ccn[nH]2)c1 | 14.6 µg/mL (≈ 32.4 µM) |
| O=C(Cc1ccccc1)Nc1ccc(S(=O)(=O)Nc2nccs2)cc1 | > 55 µg/mL |
| Cc1ccnc(NC(=S)N2CCC(c3cccc(C(F)(F)F)c3)CC2)c1 | 7.75 µg/mL (≈ 20.4 µM) |
| CCCCCN(CCC12CC3CC(CC(C3)C1)C2)C(=O)NCCCc1ccncc1 | < 1 µg/mL |
| Cc1nc2c(-c3ccccc3)cnn2c(N)c1-c1ccccc1 | < 1 µg/mL |
| Cc1ccc(-c2ccnc(N3CCC(C(N)=O)CC3)n2)cc1 | 2.67 µg/mL (≈ 9.01 µM) |
| CC(C)(C)c1ccc(C(=O)Nc2cn3cc(-n4ccnc4)ccc3n2)cc1 | < 1 µg/mL |
| O=S(=O)(Nc1cccc2ccccc12)c1ccc(NCc2ccc(Br)cc2O)cc1 | < 1 µg/mL |
| NC(=O)C1CCN(c2nc(-c3cccc(F)c3)cs2)CC1 | > 45 µg/mL |
| O=C(NCc1cccs1)c1cn2cc(-c3ccccc3)sc2n1 | < 1 µg/mL |
| Nc1ccc(-c2cccc3c(=O)cc(N4CCOCC4)oc23)cc1 | > 48 µg/mL |
| Cc1ccc(S(=O)(=O)Nc2cnccc2C(=O)Nc2nc(-c3cccc(Cl)c3)cs2)cc1 | < 1 µg/mL |
| Fc1cc(F)cc(Nc2nc(-c3ccncc3)nc3ccccc23)c1 | 2.59 µg/mL (≈ 7.75 µM) |
| C[C@@]1(c2ncncc2F)NC(=O)c2cc(-c3cn[nH]c3)ccc21 | 17.9 µg/mL (≈ 58 µM) |
| FC1(F)CCN(c2nc(-c3ccncc3)nc3ccccc23)CC1 | < 1 µg/mL |
| COc1cccc(CNc2ccc(S(=O)(=O)Nc3ccccn3)cc2)c1O | 8.36 µg/mL (≈ 21.7 µM) |
| CN(C)c1ccc(-c2csc(N3CCC(C(N)=O)CC3)n2)cc1 | 3.78 µg/mL (≈ 11.4 µM) |
| Cc1ccc(/C=C/c2nc3ccccc3n2S(=O)(=O)c2ccc(Br)cc2)cc1 | 0.184 µg/mL (≈ 0.406 µM) |
| COc1cccc(CNc2ccc(S(=O)(=O)Nc3ncc(-c4ccccc4)s3)cc2)c1O | 6.07 µg/mL (≈ 13 µM) |
| CN1CCN(Cc2ccc(-c3ccc(C(C)(C)C#N)cc3)nc2)CC1 | > 49 µg/mL |
| O=C(CCCN1CCC(O)(c2ccc(Cl)cc2)CC1)c1ccc(F)cc1 | 6.42 µg/mL (≈ 17.1 µM) |
| O=C(Nc1ncc(Cc2ccc(C(F)(F)F)cc2)s1)c1ccc(-c2ccccc2)o1 | < 1 µg/mL |
| NC(=O)C1CCN(c2ncc(-c3ccc(Br)cc3)s2)CC1 | 1.62 µg/mL (≈ 4.42 µM) |

| SMILES | solubility kinetic |
| --- | --- |
| Cc1ccnc(NC(=O)C2CC(=O)N(c3n[nH]c4cc(Br)ccc34)C2)c1 (centres undefined) | < 1 µg/mL |
| Cc1ccc(N(C)S(=O)(=O)c2ccc(-c3cnc(C4CC4)o3)cc2)cc1 | < 1 µg/mL |
| NC(=O)C1CCN(c2nc(-c3ccc4c(c3)CCO4)cs2)CC1 | > 49 µg/mL |
| O=S(=O)(Nc1nccs1)c1ccc(NCc2ccccc2O)cc1 | > 53 µg/mL |
| CC1=C(C(=O)Nc2nncs2)C2(CCCC2)N=C(Nc2nc3ccccc3o2)N1 | < 1 µg/mL |
| Cc1ccc(S(=O)(=O)Nc2cccc(C(=O)Nc3nc(-c4ccc(Cl)cc4)cs3)c2)cc1 | < 1 µg/mL |
| Cc1nc(Sc2nnnn2C)c2c(-c3ccccc3)csc2n1 | 19.4 µg/mL (≈ 57.1 µM) |
| Cn1c(=O)cc(C(=O)NC2CCCc3c2[nH]c2c(Cl)cccc32)c2ccccc21 (centres undefined) | < 1 µg/mL |
| Cc1ncc2c(c1CNC(=O)Cn1cnc3ccccc3c1=O)CCNC2 | 28.1 µg/mL (≈ 77.2 µM) |
| CN(C)CCOc1ccc(/C(=C(/CCCl)c2ccccc2)c2ccccc2)cc1 | < 1 µg/mL |
| CNc1nc2c(s1)C(c1ccccc1F)CC(=O)N2 (centres undefined) | 13.7 µg/mL (≈ 49.3 µM) |
| Cc1cc(-c2cc3c(nc2-c2ccccc2)nc(C(=O)NCCN(C)C)n3C)ccn1 | 54.5 µg/mL (≈ 132 µM) |
| CCOC(=O)c1ccnc2cc(C(OCCN3CCCCC3)c3ccccc3Cl)sc12 (centres undefined) | 56.3 µg/mL (≈ 123 µM) |
| COc1ccccc1NC(=O)c1oc2ccccc2c1NC(=O)Cc1cccs1 | < 1 µg/mL |
| CCCCOC(=O)c1ccnc2cc(C(OCCN3CCCCC3)c3ccccc3Cl)sc12 (centres undefined) | < 1 µg/mL |
| C=CCON=C(C[C@H]1O[C@@H]2O[C@]3(C)CC[C@@H]4[C@H](C)CC[C@@H]([C@H]1C)[C@@]24OO3)[C@H]1O[C@@H]2O[C@]3(C)CC[C@H]4[C@H](C)CC[C@@H]([C@@H]1C)[C@@]24OO3 | 26.6 µg/mL (≈ 42.1 µM) |
| COCCNCc1ccc(-c2cc3nccc(Oc4ccc(NC(=O)C5(C(=O)Nc6ccc(F)cc6)CC5)cc4F)c3s2)nc1 | < 1 µg/mL |
| CCOc1ccc(CCNC(=O)c2cc3sccc3n2CCN(C)C)cc1OCC | > 63 µg/mL |
| O=C1Nc2ccccc2/C1=C/c1ccnc2ccccc12 | 3.07 µg/mL (≈ 11.3 µM) |
| Cc1sc2c(c1C)C(c1ccc(Cl)cc1)=N[C@H](CC(=O)NCCCCNC(=O)COc1cccc3c1C(=O)N([C@H]1CCC(=O)NC1=O)C3=O)c1nnc(C)n1-2 | 63.8 µg/mL (≈ 81.2 µM) |
| O=S(=O)(Nc1nccs1)c1ccc(NCc2ccc(Br)cc2O)cc1 | < 1 µg/mL |
| Cc1ccc(C(=O)NC2CCN(c3cnn(CC4CC4)c(=O)c3)CC2)cc1C | < 1 µg/mL |
| COc1cc(NC(=O)c2cc(-c3ccccc3O)no2)cc(OC)c1OC | 1.09 µg/mL (≈ 2.93 µM) |
| O=C(O)CCNc1cc(N2CCc3ccccc3CC2)nc(-c2ccccn2)n1 | > 58 µg/mL |
